Experimental data reported in patent US20090311237A1, “Combination therapy using a soluble hyaluronidase and a bisphosphonate” (priority 2008, published 2009).

Experiment: Phase 1 Stage 1 clinical pharmacokinetics of SC ZA co-administered with rHuPH20
Format: in vivo, human
Method: A pharmacokinetic study of zoledronic acid (ZA) co-administered with rHuPH20 in human subjects was conducted. The primary objective of the study was to determine the bioavailability of zoledronic acid dosed via subcutaneous (SC) co-administration with human recombinant hyaluronidase PH20 (rHuPH20). […] The patients were administered the prescribed dosage formulations as follows: Cohorts 1-5 were administered a single subcutaneous infusion in a dosage volume of 100 ml at a rate of 3 mL/min. […] The dosing solution is administered via needle or catheter into the SC space of the left anterior thigh (midway between the anterior iliac crest and the cephalad border of the patella). For cohorts 1-5, the dosing solutions were administered by a controlled rate infusion pump at approximately 3 mL/minute. […] The dosing solutions were administered by syringe push bolus injection. […] Serum concentration of ZA was determined using a qualified LC-MS-MS assay after derivatization with diazomethane (Zhu, L S et al. (2006) Rapid Commun. […] The assay range was from 2.0 to 400 ng/mL with a lower limit of quantitation (LLOQ) at 2.0 ng/mL. […] Non-compartmental analysis was used for derivation of primary and secondary pharmacokinetic (PK) parameters. […] Summary statistics (mean, standard deviation, and median) were calculated using JMP or Microsoft Excel.

[1] = Subj 1, ZA […] SC, inf 0.554 hr, PH20 23928 U
[2] = Subj 8, ZA […] SC, inf 0.531 hr, PH20 22944 U
[3] = Subj 11, ZA […] SC, inf 0.554 hr, PH20 23928 U
[4] = Subj 16, ZA […] SC, inf 0.553 hr, PH20 23904 U
[5] = Subj 18, ZA […] SC, inf […], PH20 23304 U
[6] = Subj 21, ZA […] SC, inf 0.556 hr, PH20 24000 U
[7] = Subj 25, ZA […] SC, inf 0.549 hr, PH20 23736 U
[8] = Subj 26, ZA […] SC, inf […], PH20 23088 U
[9] = Subj 27, ZA 0.0196 mg/kg SC, inf […], PH20 23976 U
[10] = Subj 29, ZA 0.0339 mg/kg SC, inf 0.556 hr, PH20 24000 U
[11] = Subj 31, ZA […] SC, inf 0.554 hr, PH20 23952 U
[12] = Subj 32, ZA […] SC, inf 0.556 hr, PH20 24000 U
[13] = Subj 37, ZA 0.0791 mg/kg SC, inf 0.556 hr, PH20 24000 U
[14] = Subj 38, ZA 0.0706 mg/kg SC, inf 0.554 hr, PH20 23952 U
[15] = Subj 39, ZA 0.0691 mg/kg SC, inf 0.552 hr, PH20 23856 U
[16] = Subj 41, ZA 0.0653 mg/kg SC, inf […], PH20 12216 U
[17] = Subj 46, ZA 0.0877 mg/kg SC, inf 0.276 hr, PH20 12000 U
[18] = Subj 51, ZA […] SC, inf 0.251 hr, PH20 6024 U

O=P(O)(O)C(O)(Cn1ccnc1)P(=O)(O)O [ZA, 1-hydroxy-2-(1H-imidazol-1-yl)ethylidene-1,1-bisphosphonic acid]
AUC (0-inf)/D [1]: 0.006638 kg·h/mL
CL [1]: 2.511 mL/min/kg
Cmax/D [1]: 0.001722 kg/mL
Vss [1]: 0.44318 L/kg
Vz [1]: 0.40861 L/kg
AUC (0-inf)/D [2]: 0.01019 kg·h/mL
CL [2]: 1.635 mL/min/kg
Cmax/D [2]: 0.001772 kg/mL
Vss [2]: 0.45621 L/kg
Vz [2]: 0.43706 L/kg
AUC (0-inf)/D [3]: 0.009322 kg·h/mL
CL [3]: 1.7878 mL/min/kg
Cmax/D [3]: 0.002073 kg/mL
Vss [3]: 0.36447 L/kg
Vz [3]: 0.33982 L/kg
AUC (0-inf)/D [4]: 0.007097 kg·h/mL
CL [4]: 2.3485 mL/min/kg
Cmax/D [4]: 0.001739 kg/mL
Vss [4]: 0.44893 L/kg
Vz [4]: 0.44919 L/kg
AUC (0-inf)/D [5]: 0.00801 kg·h/mL
CL [5]: 2.0807 mL/min/kg
Cmax/D [5]: 0.002012 kg/mL
Vss [5]: 0.40254 L/kg
Vz [5]: 0.40424 L/kg
AUC (0-inf)/D [6]: 0.009748 kg·h/mL
CL [6]: 1.7097 mL/min/kg
Cmax/D [6]: 0.002152 kg/mL
Vss [6]: 0.34316 L/kg
Vz [6]: 0.33661 L/kg
AUC (0-inf)/D [7]: 0.006861 kg·h/mL
CL [7]: 2.4293 mL/min/kg
Cmax/D [7]: 0.00176 kg/mL
Vss [7]: 0.77861 L/kg
Vz [7]: 1.64423 L/kg
AUC (0-inf)/D [8]: 0.01198 kg·h/mL
CL [8]: 1.391 mL/min/kg
Cmax/D [8]: 0.002609 kg/mL
Vss [8]: 0.42621 L/kg
Vz [8]: 1.01736 L/kg
AUC (0-inf)/D [9]: 0.006142 kg·h/mL
CL [9]: 2.7135 mL/min/kg
Cmax/D [9]: 0.001276 kg/mL
Vss [9]: 0.91422 L/kg
Vz [9]: 1.53448 L/kg
AUC (0-inf)/D [10]: 0.007095 kg·h/mL
CL [10]: 2.349 mL/min/kg
Cmax/D [10]: 0.001853 kg/mL
Vss [10]: 0.66499 L/kg
Vz [10]: 1.76877 L/kg
AUC (0-inf)/D [11]: 0.007665 kg·h/mL
CL [11]: 2.1745 mL/min/kg
Cmax/D [11]: 0.001699 kg/mL
Vss [11]: 0.67025 L/kg
Vz [11]: 1.66854 L/kg
AUC (0-inf)/D [12]: 0.008441 kg·h/mL
CL [12]: 1.9745 mL/min/kg
Cmax/D [12]: 0.001677 kg/mL
Vss [12]: 1.2493 L/kg
Vz [12]: 3.76429 L/kg
AUC (0-inf)/D [13]: 0.007838 kg·h/mL
CL [13]: 2.1265 mL/min/kg
Cmax/D [13]: 0.001656 kg/mL
Vss [13]: 1.39565 L/kg
Vz [13]: 4.2995 L/kg
AUC (0-inf)/D [14]: 0.009027 kg·h/mL
CL [14]: 1.8463 mL/min/kg
Cmax/D [14]: 0.001657 kg/mL
Vss [14]: 1.52947 L/kg
Vz [14]: 3.90822 L/kg
AUC (0-inf)/D [15]: 0.01052 kg·h/mL
CL [15]: 1.584 mL/min/kg
Cmax/D [15]: 0.002127 kg/mL
Vss [15]: 1.20501 L/kg
Vz [15]: 3.57183 L/kg
AUC (0-inf)/D [16]: 0.01128 kg·h/mL
CL [16]: 1.478 mL/min/kg
Cmax/D [16]: 0.002159 kg/mL
Vss [16]: 2.37143 L/kg
Vz [16]: 5.48166 L/kg
AUC (0-inf)/D [17]: 0.008516 kg·h/mL
CL [17]: 1.957 mL/min/kg
Cmax/D [17]: 0.002429 kg/mL
Vss [17]: 1.09639 L/kg
Vz [17]: 3.51646 L/kg
AUC (0-inf)/D [18]: 0.009685 kg·h/mL
CL [18]: 1.721 mL/min/kg
Cmax/D [18]: 0.001817 kg/mL
